Experimental data published in PubChem BioAssay (NCI).
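Growth conditions: 96-well plates. Treatment: test compound, 48 hours, 5 concentrations. Analysis: linear interpolation between bracketing concentrations; unreached endpoints set to highest concentration. GI50 is the concentration that inhibits growth by half. TGI denotes the concentration required for complete inhibition of growth.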

Experiments:
Assay in all cases: growth of human tumour cells (NCI), 48 h
SF-295 CNS = test system: SF-295 CNS
DU-145 prostate = test system: DU-145 prostate
UO-31 renal = test system: UO-31 renal
U251 CNS = test system: U251 CNS
HS 578T breast = test system: HS 578T breast
OVCAR-3 ovarian = test system: OVCAR-3 ovarian
SK-MEL-5 melanoma = test system: SK-MEL-5 melanoma
COLO 205 colon = test system: COLO 205 colon
OVCAR-8 ovarian = test system: OVCAR-8 ovarian
SF-268 CNS = test system: SF-268 CNS
RXF 393 renal = test system: RXF 393 renal
TK-10 renal = test system: TK-10 renal
HCT-116 colon = test system: HCT-116 colon
SNB-19 CNS = test system: SNB-19 CNS
K-562 leukemia = test system: K-562 leukemia
NCI-H460 lung = test system: NCI-H460 lung
A549 NSCLC = test system: A549 NSCLC
HCC-2998 colon = test system: HCC-2998 colon
786-0 renal = test system: 786-0 renal
MALME-3M melanoma = test system: MALME-3M melanoma
LOX IMVI melanoma = test system: LOX IMVI melanoma
OVCAR-4 ovarian = test system: OVCAR-4 ovarian
M14 melanoma = test system: M14 melanoma
MDA-MB-231 breast = test system: MDA-MB-231 breast
MCF7 breast = test system: MCF7 breast
HCT-15 colon = test system: HCT-15 colon
HOP-62 NSCLC = test system: HOP-62 NSCLC
OVCAR-5 ovarian = test system: OVCAR-5 ovarian
UACC-257 melanoma = test system: UACC-257 melanoma
SK-MEL-28 melanoma = test system: SK-MEL-28 melanoma
UACC-62 melanoma = test system: UACC-62 melanoma
HOP-92 NSCLC = test system: HOP-92 NSCLC
SNB-75 CNS = test system: SNB-75 CNS
RPMI-8226 leukemia = test system: RPMI-8226 leukemia
T-47D breast = test system: T-47D breast
SF-539 CNS = test system: SF-539 CNS
ACHN renal = test system: ACHN renal
SR leukemia = test system: SR leukemia
SK-MEL-2 melanoma = test system: SK-MEL-2 melanoma
MOLT-4 leukemia = test system: MOLT-4 leukemia
SW-620 colon = test system: SW-620 colon
SN12C renal = test system: SN12C renal
IGROV1 ovarian = test system: IGROV1 ovarian
NCI-H522 lung = test system: NCI-H522 lung
BT-549 breast = test system: BT-549 breast
SK-OV-3 ovarian = test system: SK-OV-3 ovarian
PC-3 prostate = test system: PC-3 prostate
NCI-H23 lung = test system: NCI-H23 lung
NCI/ADR-RES ovarian = test system: NCI/ADR-RES ovarian
CCRF-CEM leukemia = test system: CCRF-CEM leukemia
HL-60(TB) leukemia = test system: HL-60(TB) leukemia
NCI-H226 lung = test system: NCI-H226 lung
HT29 colon = test system: HT29 colon
KM12 colon = test system: KM12 colon
CAKI-1 renal = test system: CAKI-1 renal
A498 renal = test system: A498 renal
MDA-MB-435 = test system: MDA-MB-435
EKVX NSCLC = test system: EKVX NSCLC

## COc1cc[nH]c1/C=C1\C(=O)Nc2ccc(F)c(C#CC3(O)CCNCC3)c21
SF-295 CNS
  GI50: 287 nM
  TGI: 2800 nM
DU-145 prostate
  GI50: 42.9 nM
  TGI: 2140 nM
UO-31 renal
  GI50: 119 nM
  TGI: 2190 nM
U251 CNS
  GI50: 73.6 nM
  TGI: 984 nM
HS 578T breast
  GI50: 75.4 nM
  TGI: 1540 nM
OVCAR-3 ovarian
  GI50: 350 nM
  TGI: 1550 nM
SK-MEL-5 melanoma
  GI50: 240 nM
  TGI: 968 nM
COLO 205 colon
  GI50: 30.3 nM
  TGI: 372 nM
OVCAR-8 ovarian
  GI50: 172 nM
  TGI: 1650 nM
SF-268 CNS
  GI50: 196 nM
  TGI: 848 nM
RXF 393 renal
  GI50: 20.4 nM
  TGI: 201 nM
TK-10 renal
  GI50: 29.1 nM
  TGI: 720 nM
HCT-116 colon
  GI50: 12.5 nM
  TGI: 2760 nM
SNB-19 CNS
  GI50: 564 nM
  TGI: 2150 nM
K-562 leukemia
  GI50: 550 nM
  TGI: 2510 nM
NCI-H460 lung
  GI50: 77.8 nM
  TGI: 747 nM
A549 NSCLC
  GI50: 98.5 nM
  TGI: 1180 nM
HCC-2998 colon
  GI50: 368 nM
  TGI: 979 nM
786-0 renal
  GI50: 106 nM
  TGI: 1680 nM
MALME-3M melanoma
  GI50: 405 nM
  TGI: 1110 nM
LOX IMVI melanoma
  GI50: 64.5 nM
  TGI: 568 nM
OVCAR-4 ovarian
  GI50: 346 nM
  TGI: 1620 nM
M14 melanoma
  GI50: 41.3 nM
  TGI: 684 nM
MDA-MB-231 breast
  GI50: 169 nM
  TGI: 1000 nM
MCF7 breast
  GI50: 111 nM
  TGI: 1900 nM
HCT-15 colon
  GI50: 139 nM
  TGI: 1930 nM
HOP-62 NSCLC
  GI50: 261 nM
  TGI: 1470 nM
OVCAR-5 ovarian
  GI50: 275 nM
  TGI: 2370 nM
UACC-257 melanoma
  GI50: 363 nM
  TGI: 1600 nM
SK-MEL-28 melanoma
  GI50: 140 nM
  TGI: 1390 nM
UACC-62 melanoma
  GI50: 160 nM
  TGI: 633 nM
HOP-92 NSCLC
  GI50: 106 nM
  TGI: 794 nM
SNB-75 CNS
  GI50: 14 nM
  TGI: 469 nM
RPMI-8226 leukemia
  GI50: 372 nM
  TGI: 1230 nM
T-47D breast
  GI50: 819 nM
  TGI: 2590 nM
SF-539 CNS
  GI50: 106 nM
  TGI: 426 nM
ACHN renal
  GI50: 26.2 nM
  TGI: 2560 nM
SR leukemia
  GI50: 8.64 nM
  TGI: 141 nM
SK-MEL-2 melanoma
  GI50: 9.88 nM
  TGI: 464 nM
MOLT-4 leukemia
  GI50: 63 nM
  TGI: 965 nM
SW-620 colon
  GI50: 83.2 nM
  TGI: 2670 nM
SN12C renal
  GI50: 62.6 nM
  TGI: 2500 nM
IGROV1 ovarian
  GI50: 383 nM
  TGI: 2270 nM
NCI-H522 lung
  GI50: 220 nM
  TGI: 715 nM
BT-549 breast
  GI50: 318 nM
  TGI: 696 nM
SK-OV-3 ovarian
  GI50: 17.2 nM
  TGI: 2610 nM
PC-3 prostate
  GI50: 181 nM
  TGI: 1950 nM
NCI-H23 lung
  GI50: 161 nM
  TGI: 1140 nM
NCI/ADR-RES ovarian
  GI50: 2110 nM
  TGI: 8240 nM
CCRF-CEM leukemia
  GI50: 77.9 nM
  TGI: 836 nM
HL-60(TB) leukemia
  GI50: 53.2 nM
  TGI: 228 nM
NCI-H226 lung
  GI50: 138 nM
  TGI: 920 nM
HT29 colon
  GI50: 91.6 nM
  TGI: 1100 nM
KM12 colon
  GI50: 2.5 nM
  TGI: 726 nM
CAKI-1 renal
  GI50: 18.1 nM
  TGI: 472 nM
A498 renal
  GI50: 108 nM
  TGI: 568 nM
MDA-MB-435
  GI50: 74.5 nM
  TGI: 504 nM

## COc1ccc(-c2onc(N)c2-c2cc(OC)c3c(c2)OCO3)cc1
SF-295 CNS
  GI50: 2320 nM
  TGI: > 100000 nM
DU-145 prostate
  GI50: 3570 nM
  TGI: > 59300 nM
UO-31 renal
  GI50: 10500 nM
  TGI: > 100000 nM
U251 CNS
  GI50: 2790 nM
  TGI: > 26100 nM
HS 578T breast
  GI50: 2650 nM
  TGI: > 100000 nM
OVCAR-3 ovarian
  GI50: 2080 nM
  TGI: 7080 nM
SK-MEL-5 melanoma
  GI50: 2800 nM
  TGI: > 25600 nM
COLO 205 colon
  GI50: 2200 nM
  TGI: 6860 nM
OVCAR-8 ovarian
  GI50: 4220 nM
  TGI: > 100000 nM
SF-268 CNS
  GI50: 8580 nM
  TGI: > 100000 nM
RXF 393 renal
  GI50: 2710 nM
  TGI: 19000 nM
TK-10 renal
  GI50: 8490 nM
  TGI: > 100000 nM
HCT-116 colon
  GI50: 2320 nM
  TGI: 50000 nM
EKVX NSCLC
  GI50: 6580 nM
  TGI: > 100000 nM
SNB-19 CNS
  GI50: 8240 nM
  TGI: > 100000 nM
K-562 leukemia
  GI50: 473 nM
  TGI: > 100000 nM
NCI-H460 lung
  GI50: 3000 nM
  TGI: 21100 nM
A549 NSCLC
  GI50: 2950 nM
  TGI: > 100000 nM
HCC-2998 colon
  GI50: 3700 nM
  TGI: > 87700 nM
786-0 renal
  GI50: 7240 nM
  TGI: > 100000 nM
MALME-3M melanoma
  GI50: 6100 nM
  TGI: > 100000 nM
LOX IMVI melanoma
  GI50: 3680 nM
  TGI: > 100000 nM
OVCAR-4 ovarian
  GI50: 13600 nM
  TGI: > 96000 nM
M14 melanoma
  GI50: 1490 nM
  TGI: 7280 nM
MDA-MB-231 breast
  GI50: 3400 nM
  TGI: 65800 nM
MCF7 breast
  GI50: 932 nM
  TGI: > 100000 nM
HCT-15 colon
  GI50: 958 nM
  TGI: > 100000 nM
HOP-62 NSCLC
  GI50: 4530 nM
  TGI: > 100000 nM
OVCAR-5 ovarian
  GI50: 6740 nM
  TGI: > 94000 nM
UACC-257 melanoma
  GI50: 3430 nM
  TGI: > 100000 nM
SK-MEL-28 melanoma
  GI50: 3840 nM
  TGI: > 100000 nM
UACC-62 melanoma
  GI50: 1960 nM
  TGI: > 46900 nM
HOP-92 NSCLC
  GI50: 4980 nM
  TGI: > 100000 nM
SNB-75 CNS
  GI50: 1750 nM
  TGI: 7320 nM
RPMI-8226 leukemia
  GI50: 3510 nM
  TGI: > 86000 nM
T-47D breast
  GI50: 4650 nM
  TGI: > 100000 nM
SF-539 CNS
  GI50: 2740 nM
  TGI: 11800 nM
ACHN renal
  GI50: 6390 nM
  TGI: > 100000 nM
SR leukemia
  GI50: 534 nM
  TGI: > 100000 nM
MOLT-4 leukemia
  GI50: 1930 nM
  TGI: > 65500 nM
SW-620 colon
  GI50: 598 nM
  TGI: > 100000 nM
SN12C renal
  GI50: 4260 nM
  TGI: > 100000 nM
IGROV1 ovarian
  GI50: 8440 nM
  TGI: > 100000 nM
NCI-H522 lung
  GI50: 1070 nM
  TGI: 5390 nM
BT-549 breast
  GI50: 2640 nM
  TGI: > 100000 nM
SK-OV-3 ovarian
  GI50: 3790 nM
  TGI: 22600 nM
PC-3 prostate
  GI50: 4690 nM
  TGI: > 100000 nM
NCI-H23 lung
  GI50: 2870 nM
  TGI: > 100000 nM
NCI/ADR-RES ovarian
  GI50: 947 nM
  TGI: > 21800 nM
CCRF-CEM leukemia
  GI50: 1810 nM
  TGI: > 88600 nM
HL-60(TB) leukemia
  GI50: 1870 nM
  TGI: 7530 nM
NCI-H226 lung
  GI50: 14200 nM
  TGI: > 100000 nM
HT29 colon
  GI50: 1650 nM
  TGI: 11900 nM
KM12 colon
  GI50: 1850 nM
  TGI: > 75400 nM
CAKI-1 renal
  GI50: 3580 nM
  TGI: > 100000 nM
A498 renal
  GI50: 1500 nM
  TGI: 10900 nM
MDA-MB-435
  GI50: 290 nM
  TGI: 1130 nM
